Earlier results, collected in patent US20130065255A1, “Biomarker to Measure Drug Efficacy in Enteropathic Disease” (priority 2011, published 2013).

What was measured:
[1] = 20 mg simvastatin dose, healthy volunteers, Park et al
[2] = humans

In the case of `CCC(C)(C)C(=O)O[C@H]1C[C@@H](C)C=C2C=C[C@H](C)[C@H](CC[C@@H](O)C[C@@H](O)CC(=O)O)[C@H]21` [Simvastatin acid, simvastatin acid], the “SVA Cmax” value [1] is listed as 1.2 ± 1.0 ng/mL.

For `Cc1ncc2n1-c1ccc(Cl)cc1C(c1ccccc1F)=NC2` [midazolam], the “dose excreted unchanged in the urine” value [2] is given as “less than 1%”.
